The subject of experiment [1] is Staphylococcus aureus (ATCC 6538). Briefly: Microtiter plate antimicrobial assay (relative growth rate, A600). Format: cell-based. Conditions: synthetic peptide; for MIC50: 10 mg/mL stock in distilled water, 10^6 CFU/mL, overnight culture 37 °C, A600, Figure 5B. On the procedure:
(§1) The cell-free supernatant of P. silvilitoris or all E. coli DH5α strains containing cloned AMPs was collected after 24 h of culture and filtered through a 0.2-μm syringe (mixed cellulose esters (MCE), Merck, Darmstadt, Germany), and finally the cell-free supernatant was used for the evaluation of antimicrobial activity. The cell-free supernatant from the E. coli DH5α, harboring only the plasmid vector without the PS_AMP genes, was confirmed as a negative control to have very little effect on antimicrobial activities. The synthesized AMPs were suspended at a concentration of 10 mg/mL in distilled water and then used for antimicrobial activity.
(§2) The antimicrobial activities against S. Typhimurium (KCTC12401), E. coli (ATCC 10536), B. cereus (ATCC 11778), S. iniae (KCTC3657), S. aureus (ATCC 6538) and C. albicans (KCTC7122) were analyzed using the microtiter plate method and expressed as minimal inhibition concentration (MIC); the bacteria pre-cultured overnight (O/N) were mixed with 10^6 CFU/mL with the cell-free supernatant or the synthetic peptides, the reaction mixtures were added to the microtiter plate, and finally the reactivity was observed by the O/N culture at 37 °C. […] The relative activity of the treated samples was then expressed as a ratio of their A600 values to that of the control.Relative growth rate = A/B A: the treated sample A600 value B: non-treated (control) A600 value

Experiment [2] has as its system Escherichia coli (ATCC 10536). Described as above. Format: cell-based. Conditions: synthetic peptide, 10 mg/mL stock in distilled water, 10^6 CFU/mL, overnight culture 37 °C, Figure 5A. On the procedure:
as §1, §2

Ends that are not written are not given here.

For orientation: MIC50 means the lowest concentration that inhibits either 50% of growth or 50% of the strains tested, depending on the study. Low values mean greater potency, high ones weaker potency. Sequence DKGLEKTKDNFF [PS_AMP4.1] showed an MIC50 in experiment [1] of 2200 µg/mL.

As to GLFDFFKKKDKTTDEQEALDK [PS_AMP4.2], the “estimated MIC50” value in experiment [1] (test strain not printed, AMP4.1 value agrees with the S. aureus value of b25) is 3000 µg/mL. Turning to LKLKKEQIELLKKIANK [PS_AMP11.1], the MIC50 in experiment [2] was found to be 1900 µg/mL; in experiment [1], 2000 µg/mL.
